Laboratory results published in PMC12173503, “Enterohaemorrhagic Escherichia coli AdhE spirosome length correlates with enzymatic directionality and is perturbed by salicylidene acylhydrazides” (Open Biology, 2025).

Key:
AdhE (6-His-AdhE) [1] = biological target: T1, AdhE (6-His-AdhE) (Escherichia coli, UniProt P0A9Q7); assay: NADH consumption at […] nm; assay type: biochemical; design: full-length AdhE, N-terminal 6-His tag kept, pET28a, expressed in E. coli BL21(DE3); spirosome oligomers, SEC fractions F12 (long) and F24 (short); conditions: forward reaction; 200 μM acetyl-CoA, 250 μM NADH, 20 μM FeSO4, 250 mM NaCl, 50 mM Tris-HCl pH 8.0, 37 °C
AdhE (6-His-AdhE) [2] = biological target: T1, AdhE (6-His-AdhE); conditions: reverse reaction; 200 mM ethanol, 500 μM NAD+, 200 μM CoASH, 20 μM FeSO4, 250 mM NaCl, 50 mM Tris-HCl pH 8.0, 37 °C

T1 sequence (P0A9Q7 whole entry): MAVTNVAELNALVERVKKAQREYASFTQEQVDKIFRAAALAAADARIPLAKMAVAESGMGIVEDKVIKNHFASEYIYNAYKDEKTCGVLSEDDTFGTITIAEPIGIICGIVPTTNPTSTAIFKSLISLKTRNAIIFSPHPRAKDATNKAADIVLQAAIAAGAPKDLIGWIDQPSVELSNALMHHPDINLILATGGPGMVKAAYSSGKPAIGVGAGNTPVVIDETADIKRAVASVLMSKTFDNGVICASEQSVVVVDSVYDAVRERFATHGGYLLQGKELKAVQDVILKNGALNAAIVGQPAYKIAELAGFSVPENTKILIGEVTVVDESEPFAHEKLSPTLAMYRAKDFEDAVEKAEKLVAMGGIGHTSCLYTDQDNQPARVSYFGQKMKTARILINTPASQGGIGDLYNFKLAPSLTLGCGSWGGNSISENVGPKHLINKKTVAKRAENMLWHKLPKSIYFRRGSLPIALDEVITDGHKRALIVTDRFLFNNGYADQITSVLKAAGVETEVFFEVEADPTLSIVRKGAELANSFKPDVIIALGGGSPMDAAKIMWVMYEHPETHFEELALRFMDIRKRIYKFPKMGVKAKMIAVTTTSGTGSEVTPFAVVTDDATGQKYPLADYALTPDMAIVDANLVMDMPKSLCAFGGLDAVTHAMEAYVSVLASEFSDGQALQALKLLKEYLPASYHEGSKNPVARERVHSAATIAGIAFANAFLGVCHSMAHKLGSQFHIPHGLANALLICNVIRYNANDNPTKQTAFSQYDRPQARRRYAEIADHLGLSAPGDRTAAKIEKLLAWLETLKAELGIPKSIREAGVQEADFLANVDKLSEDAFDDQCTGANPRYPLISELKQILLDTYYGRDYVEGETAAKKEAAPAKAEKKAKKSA

CC(=O)SCCNC(=O)CCNC(=O)[C@H](O)C(C)(C)COP(=O)(O)OP(=O)(O)OC[C@H]1O[C@@H](n2cnc3c(N)ncnc32)[C@H](O)[C@@H]1OP(=O)(O)O [acetyl-CoA]
NADH consumption at 340 nm (AdhE (6-His-AdhE) [1]): F12 or F24 was incubated with acetyl-CoA in the presence of NADH

CCO [ethanol]
NADH production at 340 nm (AdhE (6-His-AdhE) [2]): F12 or F24 was incubated with ethanol, NAD^+ and CoASH
